Where two headings read alike, the source gives them in different places.
How the values were obtained:
[1] = system: HIV-1; assay: XTT cytoprotection assay in CEM-SS cells (antiviral EC50); type: cell-based
Source text: (§1) Briefly, the infected cells in culture are killed by the virus, and the cytotoxicity is detected by the formation of color due to the […] of a formazan dye (XTT) by enzymes released by the dying cells (Weislow et al., J. Natl. Cancer Inst. 81:577-586, 1989). An effective antiviral drug is able to protect the infected cells from cytotoxicity by inhibiting some vital function of the virus. […] FIGS. 4 and 5 show the cytoprotective activity of WMC26 and WMC42. Since many drugs can also be toxic to cells in their own right, a parallel experiment is carried out wherein uninfected cells are treated with the drugs until a concentration is reached where the cells are killed by the action of the drug.
(§2) As a result of these preliminary data, additional experiments were carried out to establish the antiviral activity in other cell lines, using a variety of protocols. The preliminary experiments in lymphocytes were confirmed using infected macrophages. Much more extensive experiments were carried out in HIV-1-infected CEM SS leukemia cells. […] However, two derivatives were found which had low antileukemic activity while maintaining high antiviral activity. […] This gives a therapeutic index of more than 3 orders of magnitude. The corresponding therapeutic index for WMC50 is about 100-200, which is quite acceptable. Additional experiments were carried out on WMC-70. […] Further, WMC-70 appears to affect post-transcription events in the virus. […] While the inhibition of integration appears to be the principal mechanism by which this compound exerts its antiviral activity, there are perhaps other mechanisms which are also involved in the therapeutic action of this drug, and by extension, of other antiviral drugs of this class.
(§3) The antiviral properties of the WMC series of compounds were evaluated. First, all compounds were tested for their ability to inhibit HIV-1 replication in cell culture using the XTT cytoprotection assay. This assay measures the concentration-dependent capacity of compounds to protect CEM-SS cells from the cytopathic effects of HIV-1. […] Thus, temacrazine was the most efficacious compound in the XTT cytoprotection assay. This conclusion was also reached when the compounds were tested for anti-HIV-1 activity against HIV-1ADA in human monocyte/macrophage cultures (Table 1).

[2] = system: CEM-SS cells; assay: XTT assay toxicity in CEM-SS cells (IC50); type: cell-based; conditions: for IC50: Homo sapiens, CEM-SS cells
Source text: as §1, §2, §3

[3] = system: HIV-1ADA; assay: anti-HIV-1 activity in monocyte/macrophage cultures; type: cell-based; conditions: Human immunodeficiency virus 1; HIV-1ADA, human monocyte/macrophage cultures; read-out: Mo/Mφ EC50
Description: as §3

[4] = system: human monocyte/macrophage cultures; assay: toxicity in monocyte/macrophage cultures; type: cell-based; conditions: human monocyte/macrophage cultures; read-out: Mo/Mφ IC50
Description: as §3

[5] = system: attachment of HIV-1RF to CEM-SS cells; assay: attachment of virions to CEM-SS cells (cell-bound p24 ELISA); type: cell-based; conditions: Human immunodeficiency virus 1, CEM-SS
Source text: (§4) Based on the findings thus far our efforts have focused on biological assays of the temacrazine congener.

[6] = system: HIV-1 proviral DNA formation (LTR/gag); assay: time course assay of proviral DNA formation; type: cell-based; conditions: amplified LTR/gag region
[7] = system: HIV-1 in U1 cells; assay: TNF-α stimulated latently infected U1 cells, virus production; type: cell-based
Description: (§5) As a model of the late phase events during the HIV-1 replication cycle, U1 cells were used that are latently infected with two copies of HIV-1 proviral DNA. The high level expression of virus production in these U1 cells can be stimulated by certain factors, such as TNF-α. U1 cells were stimulated with TNF-α for 24 hours, after which were added various concentrations of temacrazine, and the cultures were allowed to incubate for 48 additional hours. At that time, the cells were evaluated for viability and for their content of viral protein synthesis and processing, while the cell-free supernatant was evaluated for viral p24 content and for the infectious titer of released virions.
After TNFα induction and temacrazine treatment, cultures were continued for 72 h after which virion-associated p24 and cell viability (XTT dye reduction) were measured.

[8] = system: U1 cells; assay: viability of U1 cells; type: cell-based; conditions: 48 h
Description: as §5, with “virions. […] Cell viability was diminished above 30 nM with these U1 cells.” for “virions.”

[9] = system: HIV-1 LTR-directed chloramphenicol acetyltransferase (CAT) activity; assay: LTR-directed CAT activity in BF-24 cells; type: cell-based; conditions: 24 h, temacrazine up to 5 μM
Source text: Initiation and regulation of HIV-1 transcription requires a complex series of interactions with cellular transcription factors, such as NFkB, SP-1 and AP-1, and the participation of cellular factors in the transcriptional complex. In addition, the post-integrative model used here requires TNFα stimulated U1 and ACH-2 cells, this model requires not only the participation of the NFkB transcriptional complex, and also components of the TNFα signaling pathway. In order to rule out that temacrazine was non-specifically effecting transcription or down-regulating replication by interfering with the TNFα signal pathway, LTR-directed chloramphenicol acetyltransferase (CAT) activity was measured in BF-24 cells. BF-24 cells are derived from the THP-1 monocytic cell line and carry a stably integrated CAT gene under the transcriptional control of the HIV-1 LTR (S. Schwartz, et al., Proc. Natl. Acad. Sci. USA 86:7200 (1989); B. K. Felber, et al., Science 239:184 (1988)). The LTR in this monocytic cell line is inducible by IL-6, PMA and TNFα, and produces enzymatically active chloramphenicol transferase (“CAT”). […]
CAT activity was determined using a fluorescent Bodipy conjugated chloramphenicol after 18 h of reaction with 50 μg of protein extract containing Acetyl CoA.

[10] = system: CEM-SS cells; assay: 3H precursor incorporation in CEM-SS cells; type: cell-based
[11] = biological target: HIV-1 integrase (Human immunodeficiency virus type 1 group M subtype B, UniProt P04585); assay: 3'-processing and strand transfer with recombinant integrase; type: biochemical; parameters: in vitro assay using purified oligomers and recombinant HIV-1 integrase
Source text: as §4

In the case of O=c1c2ccccc2n2nnc3ccc(NCCCN4CCN(CCCNc5ccc6nnn7c8ccccc8c(=O)c5c67)CC4)c1c32 [temacrazine], the therapeutic index ([1]; CEM SS cells) is reported as “more than 3 orders of magnitude”, the cytoprotective activity ([1]; HIV-1-infected CEM SS leukemia cells) is reported as “cytoprotective at very low concentrations” and the EC50 ([1]; Human immunodeficiency virus 1, CEM-SS, read-out: EC50 (inhibits the cytotoxic effect of the virus to 50%)) is reported as under 1 nM. For the same compound, the EC50 ([1]; Human immunodeficiency virus 1, CEM-SS, read-out: XTT Assay EC50) was 1.1 nM, the EC50 ([1]; Human immunodeficiency virus 1, CEM-SS cells, read-out: EC50 antiviral value, XTT cytoprotection assay) was 1.1 nM and the “concentration at which the drug kills 50% of the cells” value ([2]; CEM SS cells) was “greater than micromolar concentrations”. It also gave an IC50 ([2]; Table 1, read-out: XTT Assay IC50) of 2770 nM, an IC50 ([2]; read-out: IC50 toxicity value, XTT assay) of 2770 nM and an EC50 [3] of 10 nM. For the same compound, the IC50 [4] was 10000 nM, the IC50 ([5]; Table 1, read-out: Attachment ID50) was over 100000 nM and the IC50 ([5]; Table 1A, read-out: I50 Attachment) was over 100000 nM. For the same compound, the “formation of proviral DNA during reverse transcription” value [6] was “did not prevent the formation of proviral DNA”, the “production of infectious virus following stimulation with TNFα” value ([7]; 30 min. pulse of cultures) was “presented subsequent production of infectious virus” and the EC50 ([7]; Human immunodeficiency virus 1, U1 cells, 72 h, read-out: EC50, inhibition of HIV-1 virus replication (virion-associated p24)) was 10 to 100 nM. For the same compound, the “infectivity of released viral particles (IU/ml)” value ([7]; TNF-α 24 h, then drug 48 h) was “non-infectious”, the “concentration at which virus production (p24) was inhibited” value ([7]; TNF-α 24 h, then drug 48 h, cell-free supernatant) was “below 4 nM” and the “processing of Gag precursor polyprotein (Pr55gag) to p24 and p7NC” value ([7]; cells with integrated virus (U1), Western blotting, listed as WMC-70) was “no p24 can be detected”. The “concentration above which cell viability was diminished” value [8] was “above 30 nM”, the “CAT induction by TNFα” value [9] was “did not significantly alter CAT induction” and the “incorporation of 3H Leucine (protein metabolism)” value [10] was “no effect”. The “incorporation of 3H Thymidine (DNA replication)” value [10] was “no effect”, the “incorporation of 3H Uridine (RNA production)” value ([10]; CEM-SS cells) was “no effect” and the IC50 [11] was 10 to 100 nM. The EC50 ([11]; read-out: EC50, 3'-processing and strand transfer activity, purified oligomers, recombinant HIV-1 integrase) was 10 to 100 nM.
